For orientation: DC50 means the concentration giving 50% degradation. In general, Dmax refers to the largest share of the target that was removed.

From patent US12448389B2, “BRM targeting compounds and associated methods of use” (Prelude Therapeutics Incorporated, priority 2020, dated 2025) come the findings set out here.

Test [1] concerns the target T1, SMARCA2-HiBiT (Homo sapiens, UniProt P51531).
T1 construct: SMARCA2-HiBiT knock-in Hela monoclonal cell (CS302366); host or cells: HeLa monoclonal knock-in line (CRISPR HiBiT knock-in at the endogenous locus, heterozygous)
The test is described as follows: SMARCA2 HiBiT degradation assay in HeLa cells. It counts as cell-based. The settings on record: 18 hours incubation; for DC50: read-out: HeLa_HiBit-SM2 DC50; for Dmax: HeLa, read-out: HeLa-HiBit-SM2 Dmax (%). The method, boiled down: (§1)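 HeLa monoclonal lines with heterozygous HiBiT knock-in were seeded at 2500 cells/well in EMEM with 10% FBS and treated with compound for 18 h at 37 °C. Remaining tagged protein was measured by Nano-Glo HiBiT lytic luminescence after 30–60 min at RT, and values came from curve fitting.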
(In general: The HiBiT peptide binds its large partner to form an active luciferase.)

Test [2] addresses T2, SMARCA4-HiBiT (Homo sapiens, UniProt P51532).
T2 construct: SMARCA4-HiBiT knock-in Hela monoclonal cell (CS3023226); host or cells: HeLa monoclonal knock-in line (CRISPR HiBiT knock-in at the endogenous locus, heterozygous)
The test is described as follows: SMARCA4 HiBiT degradation assay in HeLa cells. It is filed as cell-based. The following applies: 18 hours incubation; for DC50: read-out: HeLa-HiBit-SM4 DC50; for Dmax: HeLa, read-out: HeLa-HiBit-SM4 Dmax (%). The method, boiled down:
as §1

T2 sequence (P51532 whole entry): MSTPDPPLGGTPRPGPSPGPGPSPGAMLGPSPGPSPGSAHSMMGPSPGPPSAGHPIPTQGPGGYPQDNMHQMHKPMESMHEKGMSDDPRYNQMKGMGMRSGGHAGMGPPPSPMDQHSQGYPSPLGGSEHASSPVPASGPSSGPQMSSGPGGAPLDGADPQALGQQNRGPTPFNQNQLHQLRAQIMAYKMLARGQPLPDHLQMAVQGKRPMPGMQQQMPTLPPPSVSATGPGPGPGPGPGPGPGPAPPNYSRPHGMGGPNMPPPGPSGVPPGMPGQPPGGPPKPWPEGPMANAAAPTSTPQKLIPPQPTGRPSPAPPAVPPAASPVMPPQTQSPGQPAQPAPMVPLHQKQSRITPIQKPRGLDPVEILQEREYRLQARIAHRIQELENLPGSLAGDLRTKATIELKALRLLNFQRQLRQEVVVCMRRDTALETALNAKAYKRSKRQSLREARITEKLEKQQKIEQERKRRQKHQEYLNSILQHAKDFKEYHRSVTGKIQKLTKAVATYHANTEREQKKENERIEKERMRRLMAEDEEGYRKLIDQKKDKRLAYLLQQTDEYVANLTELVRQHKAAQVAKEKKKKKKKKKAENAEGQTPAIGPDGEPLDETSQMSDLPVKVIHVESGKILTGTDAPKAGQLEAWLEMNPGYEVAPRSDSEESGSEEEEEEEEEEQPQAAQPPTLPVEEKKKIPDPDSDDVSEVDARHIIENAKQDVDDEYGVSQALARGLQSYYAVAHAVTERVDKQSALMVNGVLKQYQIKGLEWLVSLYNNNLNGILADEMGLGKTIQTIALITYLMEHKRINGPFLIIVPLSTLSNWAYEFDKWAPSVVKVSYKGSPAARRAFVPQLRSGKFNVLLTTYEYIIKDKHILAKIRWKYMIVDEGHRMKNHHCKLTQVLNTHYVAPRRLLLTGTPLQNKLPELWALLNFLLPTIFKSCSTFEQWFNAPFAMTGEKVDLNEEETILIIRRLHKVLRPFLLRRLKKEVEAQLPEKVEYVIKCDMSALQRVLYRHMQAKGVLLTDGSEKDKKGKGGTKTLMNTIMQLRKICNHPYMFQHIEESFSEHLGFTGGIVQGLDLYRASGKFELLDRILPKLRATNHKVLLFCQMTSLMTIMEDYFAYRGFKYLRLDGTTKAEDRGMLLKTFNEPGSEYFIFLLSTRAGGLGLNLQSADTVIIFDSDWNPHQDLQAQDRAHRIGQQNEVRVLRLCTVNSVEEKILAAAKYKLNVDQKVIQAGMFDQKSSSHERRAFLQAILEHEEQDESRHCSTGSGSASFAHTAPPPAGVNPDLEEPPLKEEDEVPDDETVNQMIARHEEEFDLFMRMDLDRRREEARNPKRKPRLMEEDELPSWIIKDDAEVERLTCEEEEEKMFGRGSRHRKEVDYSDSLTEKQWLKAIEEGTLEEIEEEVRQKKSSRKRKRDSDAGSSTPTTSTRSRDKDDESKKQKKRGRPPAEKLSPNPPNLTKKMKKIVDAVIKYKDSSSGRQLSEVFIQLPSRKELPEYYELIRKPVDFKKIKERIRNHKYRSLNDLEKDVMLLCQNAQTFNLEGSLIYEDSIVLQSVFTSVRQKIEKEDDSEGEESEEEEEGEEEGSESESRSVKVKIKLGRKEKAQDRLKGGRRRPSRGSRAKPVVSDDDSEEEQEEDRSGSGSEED
T1 sequence (P51531 whole entry): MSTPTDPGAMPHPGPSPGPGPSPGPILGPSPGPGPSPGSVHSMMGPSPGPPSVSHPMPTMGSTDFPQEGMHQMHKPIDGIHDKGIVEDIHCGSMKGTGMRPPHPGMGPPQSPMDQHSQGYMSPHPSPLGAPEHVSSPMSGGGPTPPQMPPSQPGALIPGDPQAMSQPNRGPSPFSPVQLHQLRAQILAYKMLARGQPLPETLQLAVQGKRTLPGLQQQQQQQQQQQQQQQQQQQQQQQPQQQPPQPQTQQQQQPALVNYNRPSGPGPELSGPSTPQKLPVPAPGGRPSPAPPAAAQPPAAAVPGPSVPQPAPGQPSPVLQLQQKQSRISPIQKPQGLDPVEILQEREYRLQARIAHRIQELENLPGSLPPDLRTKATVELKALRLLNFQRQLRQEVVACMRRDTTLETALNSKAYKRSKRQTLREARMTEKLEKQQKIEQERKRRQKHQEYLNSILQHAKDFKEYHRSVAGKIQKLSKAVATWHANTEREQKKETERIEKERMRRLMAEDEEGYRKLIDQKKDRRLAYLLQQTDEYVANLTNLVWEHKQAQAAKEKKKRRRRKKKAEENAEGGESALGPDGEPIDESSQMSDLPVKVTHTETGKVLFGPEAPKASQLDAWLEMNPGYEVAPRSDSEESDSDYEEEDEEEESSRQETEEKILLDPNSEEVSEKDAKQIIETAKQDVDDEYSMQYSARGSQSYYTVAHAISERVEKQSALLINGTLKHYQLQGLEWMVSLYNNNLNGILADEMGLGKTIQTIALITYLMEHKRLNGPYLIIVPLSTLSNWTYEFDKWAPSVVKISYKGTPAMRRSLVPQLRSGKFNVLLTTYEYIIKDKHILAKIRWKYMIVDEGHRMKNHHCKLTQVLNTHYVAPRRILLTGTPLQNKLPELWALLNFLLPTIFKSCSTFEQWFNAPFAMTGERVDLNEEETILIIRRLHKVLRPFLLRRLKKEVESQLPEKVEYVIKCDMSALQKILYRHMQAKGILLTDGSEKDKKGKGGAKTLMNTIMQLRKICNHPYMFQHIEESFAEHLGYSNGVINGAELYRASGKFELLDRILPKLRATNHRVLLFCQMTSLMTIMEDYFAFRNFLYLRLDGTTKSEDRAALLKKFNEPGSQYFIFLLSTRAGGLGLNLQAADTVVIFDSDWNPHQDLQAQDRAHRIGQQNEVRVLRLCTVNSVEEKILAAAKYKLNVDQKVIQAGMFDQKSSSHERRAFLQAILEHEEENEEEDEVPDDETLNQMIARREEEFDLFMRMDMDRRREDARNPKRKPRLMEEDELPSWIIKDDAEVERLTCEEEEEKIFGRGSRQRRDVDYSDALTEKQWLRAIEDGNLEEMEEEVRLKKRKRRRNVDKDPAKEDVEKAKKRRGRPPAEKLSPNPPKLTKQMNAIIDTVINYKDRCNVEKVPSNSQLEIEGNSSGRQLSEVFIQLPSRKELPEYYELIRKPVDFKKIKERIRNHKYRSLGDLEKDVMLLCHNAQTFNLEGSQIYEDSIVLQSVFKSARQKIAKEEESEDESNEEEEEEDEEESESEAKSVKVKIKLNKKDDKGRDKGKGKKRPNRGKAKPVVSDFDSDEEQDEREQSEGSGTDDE

In the case of `O=C1CCC(N2C(=O)c3ccc(N4CCN(CCN5CCO[C@H](CN6CCN7c8cc(-c9ccccc9O)nnc8NC[C@H]7C6)C5)CC4)cc3C2=O)C(=O)N1` (stereo partly drawn) [Example 159, 2-(2,6-dioxopiperidin-3-yl)-5-(4-(2-((R)-2-(((S)-2-(2-hydroxyphenyl)-5,6,6a,7,9,10-hexahydro-8H-pyrazino[1′,2′:4,5]pyrazino[2,3-c]pyridazin-8-yl)methyl)morpholino)ethyl)piperazin-1-yl)isoindoline-1,3-dione], in test [1], the DC50 is less than 10 nM and the Dmax was greater than 85%. Further, in test [2], the DC50 is less than 10 nM and the Dmax lay in the range of 50 to 75%.
Turning to `O=C1CCC(N2Cc3cc(C4CCN(CC5CCN(CCN6CCN7c8cc(-c9ccccc9O)nnc8NC[C@H]7C6)CC5)CC4)ccc3C2=O)C(=O)N1` (stereo partly drawn) [Example 213, 3-(5-(1-((1-(2-((S)-2-(2-hydroxyphenyl)-5,6,6a,7,9,10-hexahydro-8H-pyrazino[1′,2′:4,5]pyrazino[2,3-c]pyridazin-8-yl)ethyl)piperidin-4-yl)methyl)piperidin-4-yl)-1-oxoisoindolin-2-yl)piperidine-2,6-dione], in test [1], the DC50 is less than 10 nM and the Dmax is greater than 85%. Besides, in test [2], the DC50 was less than 10 nM and the greatest degradation seen (Dmax) is greater than 85%.
As for `O=C1CCC(N2C(=O)c3cccc(N4CCC(CCCN5CCC(N6CCN7c8cc(-c9ccccc9O)nnc8NC[C@H]7C6)C(F)C5)CC4)c3C2=O)C(=O)N1` (stereo partly drawn) [Example 73, 2-(2,6-dioxopiperidin-3-yl)-4-(4-(3-(3-fluoro-4-((S)-2-(2-hydroxyphenyl)-5,6,6a,7,9,10-hexahydro-8H-pyrazino[1′,2′:4,5]pyrazino[2,3-c]pyridazin-8-yl)piperidin-1-yl)propyl)piperidin-1-yl)isoindoline-1,3-], in test [1], the DC50 is less than 10 nM and the Dmax was in the range of 75 to 85%. Also, in test [2], the DC50 was less than 10 nM and the Dmax was 50 to 75%.
As for `O=C1CCC(N2Cc3cc(N4CC(CN5CCC(CN6CCN7c8cc(-c9ccccc9O)nnc8NC[C@H]7C6)CC5)C4)ccc3C2=O)C(=O)N1` (stereo partly drawn) [Example 230, 3-(5-(3-((4-(((S)-2-(2-hydroxyphenyl)-5,6,6a,7,9,10-hexahydro-8H-pyrazino[1′,2′:4,5]pyrazino[2,3-c]pyridazin-8-yl)methyl)piperidin-1-yl)methyl)azetidin-1-yl)-1-oxoisoindolin-2-yl)piperidine-2,6-dione], the DC50 in test [1] and in test [2] was less than 10 nM each time. Also, the Dmax in test [1] and in test [2] was greater than 85% in each case.
As to `O=C1CCC(N2C(=O)c3ccc(Nc4cccc(N5CCC(N6CCN7c8cc(-c9ccccc9O)nnc8NC[C@H]7C6)CC5)c4)cc3C2=O)C(=O)N1` (stereo partly drawn) [Example 244, 2-(2,6-dioxopiperidin-3-yl)-5-((3-(4-((S)-2-(2-hydroxyphenyl)-5,6,6a,7,9,10-hexahydro-8H-pyrazino[1′,2′:4,5]pyrazino[2,3-c]pyridazin-8-yl)piperidin-1-yl)phenyl)amino)isoindoline-1,3-dione], the figures for the DC50 in test [1] and in test [2] were less than 10 nM and 10 to 100 nM, respectively. Besides, the Dmax in test [1] and in test [2] was 75 to 85% throughout.
`O=C1CCC(N2C(=O)c3ccc(N4CCC(CN5CCC(CCN6CCN7c8cc(-c9ccccc9O)nnc8NC[C@H]7C6)CC5)CC4)cc3C2=O)C(=O)N1` (stereo partly drawn) [Example 229, 2-(2,6-dioxopiperidin-3-yl)-5-(4-((4-(2-((S)-2-(2-hydroxyphenyl)-5,6,6a,7,9,10-hexahydro-8H-pyrazino[1′,2′:4,5]pyrazino[2,3-c]pyridazin-8-yl)ethyl)piperidin-1-yl)methyl)piperidin-1-yl)isoindoline-1,3-dione]: the DC50 in test [1] and in test [2] was less than 10 nM throughout. Further, the Dmax in test [1] and in test [2] was greater than 85% throughout.
In the case of `O=C1CCC(N2C(=O)c3cc(F)c(N4CCN(CC5CCN(C(=O)N6CCN7c8cc(-c9ccccc9O)nnc8NC[C@H]7C6)CC5)CC4)cc3C2=O)C(=O)N1` (stereo partly drawn) [Example 263, 2-(2,6-dioxopiperidin-3-yl)-5-fluoro-6-(4-((1-((S)-2-(2-hydroxyphenyl)-6,6a,7,8,9,10-hexahydro-5H-pyrazino[1′,2′:4,5]pyrazino[2,3-c]pyridazine-8-carbonyl)piperidin-4-yl)methyl)piperazin-1-yl)isoindoline-1,3-dione], in test [1], the DC50 is less than 10 nM and the Dmax was no more than 50%. Also, in test [2], the DC50 lay within 10 to 100 nM and the Dmax was no more than 50%.
For the molecule `O=C1CCC(N2Cc3cc(OCCN4CCCC(CN5CCN6c7cc(-c8ccccc8O)nnc7NC[C@H]6C5)C4)ccc3C2=O)C(=O)N1` (stereo partly drawn) [Example 255, 3-(5-(2-(3-(((S)-2-(2-hydroxyphenyl)-5,6,6a,7,9,10-hexahydro-8H-pyrazino[1′,2′:4,5]pyrazino[2,3-c]pyridazin-8-yl)methyl)piperidin-1-yl)ethoxy)-1-oxoisoindolin-2-yl)piperidine-2,6-dione], in test [1], the DC50 fell in the range of 10 to 100 nM and the Dmax lay in the range of 75 to 85%. For the same molecule, in test [2], the DC50 was 100 to 1000 nM and the Dmax is no more than 50%.
Turning to `CC1CC(CN2CCN3c4cc(-c5ccccc5O)nnc4NC[C@H]3C2)CCN1CC1CCN(c2ccc3c(c2)C(=O)N(C2CCC(=O)NC2=O)C3=O)CC1` (stereo partly drawn) [Example 162, 2-(2,6-dioxopiperidin-3-yl)-5-[4-[[4-[[(10S)-4-(2-hydroxyphenyl)-1,5,6,8,12-pentazatricyclo[8.4.0.02,7]tetradeca-2,4,6-trien-12-yl]methyl]-2-methylpiperidine-1-yl]methyl]piperidin-1-yl] isoindole-1,3-dione], in test [1], the DC50 was less than 10 nM and the Dmax is greater than 85%. Besides, in test [2], the DC50 was less than 10 nM and the Dmax was greater than 85%.
As to `O=C1CCC(N2C(=O)c3ccc(N4CCC(CN5CCC(CN6CCN7c8cc(-c9ccccc9O)nnc8NC[C@H]7C6)CC5)C4)cc3C2=O)C(=O)N1` (stereo partly drawn) [Example 225, 2-(2,6-dioxopiperidin-3-yl)-5-(3-((4-(((S)-2-(2-hydroxyphenyl)-5,6,6a,7,9,10-hexahydro-8H-pyrazino[1′,2′:4,5]pyrazino[2,3-c]pyridazin-8-yl)methyl)piperidin-1-yl)methyl)pyrrolidin-1-yl)isoindoline-1,3-dione], in test [1], the DC50 is less than 10 nM and the Dmax was greater than 85%. Moreover, in test [2], the half-maximal degradation concentration (DC50) is less than 10 nM and the Dmax is greater than 85%.
As for `O=C1CCC(N2Cc3ccc(N4CC[C@H](CN5CCN(C(=O)N6CCN7c8cc(-c9ccccc9O)nnc8NC[C@H]7C6)CC5)[C@@H](F)C4)cc3C2=O)C(=O)N1` (stereo partly drawn) [Example 205, 3-[5-[(3R.4R)-3-fluoro-4-[[4-[(10S)-4-(2-hydroxyphenyl)-1,5,6,8,12-pentazatricyclo[8.4.0.02,7]tetradeca-2,4,6-triene-12-carbonyl]piperazin-1-yl]methyl]piperidin-1-yl]-3-oxo-1H-isoindol-2-yl]piperidine-2.6-dione], in test [1], the DC50 was less than 10 nM and the Dmax is greater than 85%. For the same molecule, in test [2], the DC50 lay within 10 to 100 nM and the Dmax lay within 75 to 85%.
In the case of `O=C1CCC(N2Cc3ccc(N4CCC(CN5C[C@@H]6[C@H](C5)[C@H]6C(=O)N5CCN6c7cc(-c8ccccc8O)nnc7NC[C@H]6C5)CC4)cc3C2=O)C(=O)N1` (stereo partly drawn) [Example 96, 3-(6-(4-(((1R,5S,6r)-6-((S)-2-(2-hydroxyphenyl)-6,6a,7,8,9,10-hexahydro-5H-pyrazino[1′,2′:4,5]pyrazino[2,3-c]pyridazine-8-carbonyl)-3-azabicyclo[3.1.0]hexan-3-yl)methyl)piperidin-1-yl)-1-oxoisoindolin-2-yl)piperidine-2,6-dione], in test [1], the DC50 is less than 10 nM and the Dmax was in the range of 50 to 75%. In addition, in test [2], the DC50 lay within 10 to 100 nM and the Dmax was no more than 50%.
The corresponding values for `CCC1CN(CC2CCN(c3ccc4c(c3)C(=O)N(C3CCC(=O)NC3=O)C4=O)CC2)CCN1C(=O)N1CCN2c3cc(-c4ccccc4O)nnc3NC[C@H]2C1` (stereo partly drawn) [Example 269, 2-(2,6-dioxopiperidin-3-yl)-5-(4-((3-ethyl-4-((S)-2-(2-hydroxyphenyl)-6,6a,7,8,9,10-hexahydro-5H-pyrazino[1′,2′:4,5]pyrazino[2,3-c]pyridazine-8-carbonyl)piperazin-1-yl)methyl)piperidin-1-yl)isoindoline-1,3-dione] are less than 10 nM, 75 to 85%, 10 to 100 nM and 50 to 75%.
The corresponding values for `O=C1CCC(N2C(=O)c3ccc(N4CCC(F)(F)C(CN5C[C@@H]6[C@H](C5)[C@H]6CN5CCN6c7cc(-c8ccccc8O)nnc7NC[C@H]6C5)C4)cc3C2=O)C(=O)N1` (stereo partly drawn) [Example 55, 5-(4,4-difluoro-3-(((1R,5S,6r)-6-(((S)-2-(2-hydroxyphenyl)-5,6,6a,7,9,10-hexahydro-8H-pyrazino[1′,2′:4,5]pyrazino[2,3-c]pyridazin-8-yl)methyl)-3-azabicyclo[3.1.0]hexan-3-yl)methyl)piperidin-1-yl)-2-(2,6-dioxopiperidin-3-yl)isoindoline-1,3-dione] are 10 to 100 nM, 50 to 75%, 10 to 100 nM and 75 to 85%.
